Measurements from publication PMC12340956, “Tranylcypromine-Based LSD1 Inhibitors as Useful Agents to Reduce Viability of” (ACS Infectious Diseases, 2025).
Read-outs that look alike come from different tables or passages of the source.

Key:
[1] = tested on: human recombinant LSD1-CoREST enzymatic complex; settings: Table S1, cited from earlier work
[2] = tested on: newly transformed schistosomula (NTS); experiment: NTS viability phenotypic screening, 72 h; settings: for IC50: Schistosoma mansoni, read-out: IC50 (NTS viability)
Method: (§4) For NTS and adult worms, transparent flat-bottom 96- and 24-well plates were used, respectively (Sarstedt, Switzerland). For juvenile worms, 48-well plates were used with 3–6 worms per plate and RPMI medium with 5% FCS and 1% penicillin/streptomycin. Compounds were initially tested at 20 and 10 μM in triplicate on NTS and repeated once; each well contained 30–40 NTS. Phenotypic reference points such as motility, morphology, and granularity were used to score incubated parasites’ overall viability (scores from 0 to 3). […] Identified hits from the NTS screening were tested on adult worms. […] The experiment was conducted in duplicate and repeated; standard deviations were calculated from two wells. […] For all in vitro assays, negative controls (DMSO at the highest tested concentration) were included.

[3] = tested on: S. mansoni juvenile forms; experiment: Speed-of-action assay in juvenile forms; type: cell-based, Schistosoma mansoni; settings: for IC50: Schistosoma mansoni, read-out: IC50 (speed of action, juvenile forms); for Percentage of effect: juvenile forms
From the text: (§1) To better characterize a selection of our LSD1i in vitro, we assessed the onset of their action, defined as the time required for an observable antischistosomal effect. […] For detailed percentages of activity at each time point, refer to the Supporting Information (Tables S2 and S3 in Supporting Information).

[4] = MTT cytotoxicity in MRC-5 cells; type: cell-based; settings: human, MRC-5 lung diploid fibroblast cells; for viability at 72 h, 5 µM / viability at 72 h, 10 µM / viability at 72 h, 25 µM / viability at 72 h, 50 µM: read-out: percentage of viability, 72 h; for IC50 at 72 h: read-out: IC50 (cell viability)
Method: (§2) The MTT method was used to evaluate cell viability after 72 h of treatment.
(§3) Human commercial lung diploid fibroblasts (MRC-5), and diploid retinal epithelium cells (RPE) were obtained from the American Type Culture Collection (ATCC) and kindly provided by Dr Francesca Degrassi (CNR IBPM) and maintained in minimal essential medium or DMEM-F12 medium supplemented with fetal calf serum, antibiotics, and nonessential amino acids. Cells were grown at 37 °C, in a humidified atmosphere, with 5% CO2. For experiments, cells were seeded in 200 μL of complete in each well of a 96-well microtiter plate. After 24 h, compounds were added at 5, 10, 25, and 50 μM for 72 h in sextuplicate. MTT was added (0.5 mg/mL), incubated for 4 h at 37 °C, and dissolved in 200 μL of isopropyl alcohol. Absorbance was measured at 570 nm (ELISA reader, DASIT), and cell viability was calculated as viability=(ODoftreatedcells/ODofcontrolcells)×100

adult worms [5] = experiment: Adult worm viability phenotypic assay, 72 h; settings: Schistosoma mansoni, read-out: IC50 (adult worm viability)
Method: The life cycle is maintained at the Swiss TPH as described previously. Cercariae were obtained from infected snails by exposing them to a strong light source for 3–4 h in pond water.
as §4

adult worms [6] = experiment: Pairing and egg laying of adult worms; type: cell-based, Schistosoma mansoni; settings: for eggs' number: 20 μM
Method: Selected compounds 2, 15, 18, and 19 were tested on adult worms to evaluate their effects on pairing and egg laying.

NTS = experiment: Speed-of-action assay in NTS; type: cell-based, Schistosoma mansoni; settings: for Percentage of effect: NTS; for IC50: Schistosoma mansoni, read-out: IC50 (speed of action, NTS)
From the text: as §1

[7] = MTT cytotoxicity in RPE cells; type: cell-based; settings: human, retinal pigment epithelial (RPE) cells; for viability at 72 h, 5 µM / viability at 72 h, 10 µM / viability at 72 h, 25 µM / viability at 72 h, 50 µM: read-out: percentage of viability, 72 h; for IC50 at 72 h: read-out: IC50 (cell viability)
Method: as §2, §3

[8] = ref 2 (SI: Fioravanti et al., ChemMedChem 2020)
[9] = ref 3 (SI: Fioravanti et al., J Enzyme Inhib Med Chem 2022)
[10] = ref 4 (SI: Rodriguez et al., MedChemComm 2015)

NC1CC1c1ccc(NC(=O)c2ccc(O)c3ncccc23)cc1 (stereo not drawn) [Compound 1]
IC50 ([1]; ref 1 (SI: Rotili et al., J Med Chem 2014)): < 1 µM
Percentage of reduction of NTS viability, 72 h ([2]; 10 μM): 37.9 ± 0.0%
Percentage of reduction of NTS viability, 72 h ([2]; 20 μM): 45.8 ± 4.2%
IC50 [2]: > 20 µM

NC1CC1c1ccc(NC(=O)c2ccc(-c3ccccc3)cc2)cc1 (stereo not drawn) [Compound 2]
IC50 ([3]; 4 h): > 20 µM
IC50 ([3]; 24 h): 16.2 µM
IC50 ([3]; 48 h): > 20 µM
IC50 ([3]; 72 h): 5.9 µM
Percentage of effect ([3]; 4 h, 1 μM): 20%
Percentage of effect ([3]; 4 h, 10 μM): 23.33%
Percentage of effect ([3]; 4 h, 20 μM): 43.64%
Percentage of effect ([3]; 24 h, 1 μM): 24.14%
Percentage of effect ([3]; 24 h, 10 μM): 37.93%
Percentage of effect ([3]; 24 h, 20 μM): 57.69%
Percentage of effect ([3]; 48 h, 1 μM): 32.69%
Percentage of effect ([3]; 48 h, 10 μM): 36.45%
Percentage of effect ([3]; 48 h, 20 μM): 56.25%
Percentage of effect ([3]; 72 h, 1 μM): 39%
Percentage of effect ([3]; 72 h, 10 μM): 39.11%
Percentage of effect ([3]; 72 h, 20 μM): 70.83%
viability at 72 h, 5 µM [4]: 29 ± 2%
viability at 72 h, 10 µM [4]: 26 ± 3%
viability at 72 h, 25 µM [4]: 13 ± 3%
viability at 72 h, 50 µM [4]: 10 ± 2%
IC50 at 72 h [4]: 5.9 µM
IC50 (adult worms [5]): > 10 µM
eggs' number (adult worms [6]; 4 h): 0
eggs' number (adult worms [6]; 8 h): 0
eggs' number (adult worms [6]; 24 h): 0
eggs' number (adult worms [6]; 48 h): 0
eggs' number (adult worms [6]; 72 h): 6
effect on worm pairing (adult worms [6]; adult worms): no impact on worm pairing
IC50 [1, 8]: 0.05 ± 0.01 µM
Percentage of effect (NTS; 4 h, 10 μM): 30.77%
Percentage of effect (NTS; 4 h, 20 μM): 38.46%
Percentage of effect (NTS; 24 h, 10 μM): 78.57%
Percentage of effect (NTS; 24 h, 20 μM): 82.14%
Percentage of effect (NTS; 48 h, 10 μM): 87.76%
Percentage of effect (NTS; 48 h, 20 μM): 93.88%
Percentage of effect (NTS; 72 h, 10 μM): 89.80%
Percentage of effect (NTS; 72 h, 20 μM): 100%
IC50 (NTS; 4 h): > 20 µM
IC50 (NTS; 24 h): 5 µM
IC50 (NTS; 48 h): 4 µM
IC50 (NTS; 72 h): 2.3 µM
viability at 72 h, 5 µM [7]: 95 ± 9%
viability at 72 h, 10 µM [7]: 82 ± 11%
viability at 72 h, 25 µM [7]: 87 ± 39%
viability at 72 h, 50 µM [7]: 49 ± 9%
IC50 at 72 h [7]: 68.9 µM
Percentage of reduction of NTS viability, 72 h ([2]; 0.1 μM): 43.7 ± 2.1%
Percentage of reduction of NTS viability, 72 h ([2]; 1 μM): 56.9 ± 0.9%
Percentage of reduction of NTS viability, 72 h ([2]; 10 μM): 98 ± 1.0%
Percentage of reduction of NTS viability, 72 h ([2]; 20 μM): 100 ± 0.0%
IC50 [2]: 0.26 µM

NC1CC1c1ccc(NC(=O)c2ccc(-c3ccco3)cc2)cc1 (stereo not drawn) [Compound 3]
IC50 [1, 9]: 2 µM
Percentage of reduction of NTS viability, 72 h ([2]; 10 μM): 36.2 ± 0.9%
Percentage of reduction of NTS viability, 72 h ([2]; 20 μM): 37.50 ± 0.0%
IC50 [2]: > 20 µM

NC1CC1c1ccc(NC(=O)c2ccc(-c3ccsc3)cc2)cc1 (stereo not drawn) [Compound 4]
IC50 (adult worms [5]): > 10 µM
IC50 [1, 9]: 0.34 ± 0.11 µM
Percentage of reduction of NTS viability, 72 h ([2]; 10 μM): 43.1 ± 0.9%
Percentage of reduction of NTS viability, 72 h ([2]; 20 μM): 79.17 ± 0.0%
IC50 [2]: > 10 µM

CN1CCN(c2cc(C(=O)Nc3ccc(C4CC4N)cc3)ccc2NC(=O)OCc2ccccc2)CC1 (stereo not drawn) [Compound 5]
viability at 72 h, 5 µM [4]: 75 ± 7%
viability at 72 h, 10 µM [4]: 59 ± 5%
viability at 72 h, 25 µM [4]: 58 ± 2%
viability at 72 h, 50 µM [4]: 39 ± 4%
IC50 at 72 h [4]: 24.3 µM
IC50 (adult worms [5]): 2.23 µM
IC50 [1, 8]: 0.09 ± 0.01 µM
viability at 72 h, 5 µM [7]: 63 ± 33%
viability at 72 h, 10 µM [7]: 72 ± 18%
viability at 72 h, 25 µM [7]: 82 ± 11%
viability at 72 h, 50 µM [7]: 57 ± 10%
IC50 at 72 h [7]: 55.8 µM
Percentage of reduction of NTS viability, 72 h ([2]; 1 μM): 18.0 ± 1.0%
Percentage of reduction of NTS viability, 72 h ([2]; 10 μM): 100 ± 0.0%
Percentage of reduction of NTS viability, 72 h ([2]; 20 μM): 100 ± 0.0%
IC50 [2]: 1.35 µM

NC1CC1c1ccc(NC(=O)c2ccn(C(=O)OCc3ccccc3)c2)cc1 (stereo not drawn) [Compound 6]
IC50 (adult worms [5]): > 20 µM
IC50 [1, 10]: 0.05 ± 0.004 µM
Percentage of reduction of NTS viability, 72 h ([2]; 10 μM): 40.0 ± 2.0%
Percentage of reduction of NTS viability, 72 h ([2]; 20 μM): 100 ± 0.0%
IC50 [2]: > 10 µM

NC1CC1c1ccc(NC(=O)c2cc3ccccc3n2CC(=O)Nc2ccccc2)cc1 (stereo not drawn) [Compound 7]
IC50 (adult worms [5]): > 20 µM
IC50 [1, 10]: 0.09 ± 0.01 µM
Percentage of reduction of NTS viability, 72 h ([2]; 10 μM): 37.9 ± 0.0%
Percentage of reduction of NTS viability, 72 h ([2]; 20 μM): 66.7 ± 4.2%
IC50 [2]: > 10 µM
